Measured values taken from patent publication US20100143507A1, “CARBOXYLIC ACID INHIBITORS OF HISTONE DEACETYLASE, GABA TRANSAMINASE AND SODIUM CHANNEL” (AUSPEX PHARMACEUTICALS, INC., priority 2008, published 2010).

Assay: In vitro liver microsomal stability assay
Assay type: in vitro ADME
Conditions: 1 mg per mL liver microsome protein, NADPH-generating system, 1 μM test compound, 37° C., 0-60 minutes, LC/MS/MS
Procedure: Liver microsomal stability assays were conducted with 1 mg per mL liver microsome protein with an NADPH-generating system (2.2 mM NADPH, 25.6 mM glucose 6-phosphate, 6 units per mL glucose 6-phosphate dehydrogenase and 3.3 mM magnesium chloride) in 2% sodium bicarbonate. Test compounds were prepared as solutions in 20% acetonitrile-water and added to the assay mixture (final assay concentration 1 μM) and incubated at 37° C. Final concentration of acetonitrile in the assay should be <1%. Aliquots (50 μL) were taken out at times 0, 15, 30, 45, and 60 minutes, and diluted with ice cold acetonitrile (200 μL) to stop the reactions. Samples were centrifuged at 12,000 RPM for 10 minutes to precipitate proteins. Supernatants were transferred to microcentrifuge tubes and stored for LC/MS/MS analysis of the degradation half-life of the test compounds. […] In certain embodiments, the increase in degradation half-life is at least 5%; at least 10%; or at least 15%.

[2H]C([2H])([2H])C([2H])([2H])C([2H])([2H])C([2H])(C(=O)O)C([2H])([2H])C([2H])([2H])C([2H])([2H])[2H] [valproic acid-d15]
degradation half-life as compared to the non-isotopically enriched drug: increased degradation half-life
